# According to publication PMC6196658, “Activity of Thioallyl Compounds From Garlic Against Giardia duodenalis Trophozoites and in Experimental Giardiasis” (Frontiers in Cellular and Infection Microbiology, 2018):
# “And” between values parts separate entries of the source, which are not always exact repeats. Equal entries are not always repeated.
# Columns and labels:
# [1] = mouse, no reference given; cited from earlier work
# [2] = tested on: G. duodenalis trophozoites; assay: In vitro susceptibility, direct cell count (DCC); assay type: cell-based, Giardia duodenalis (WB strain); conditions: 24 h exposure
# [3] = tested on: G. duodenalis trophozoites; assay: Cell cycle stages, PI flow cytometry; assay type: cell-based, Giardia duodenalis; conditions: 24 h
# Procedure: (§1) The identification and quantitative determinations of trophozoites were carried out as follows: (a) apoptosis or necrosis were determined using anti-annexin V-fluorescein isothiocyanate (FITC) antibodies or PI as respective markers, (b) oxidative stress was determined by formation of reactive oxygen species (ROS) with the fluorescent ROS-complexing agent 5-(and 6)-carboxy 2′7′-dichlorodihydrofluorescein diacetate (H2DCFDA), and (c) determination of trophozoites cell cycle stages (G1, S, G2, and G2/M) after exposure to ALC or to a control drug (albendazole, ABZ) was carried out as previously described (Martínez-Espinosa et al., [2015]). In all these assays 20,000 cells per sample were recorded.
# [4] = Storage stability of allicin; conditions: 1.5% (w/v) in water, 1 mL aliquots at −70°C
# Procedure: For stabilization and storage of ALC, the oily product was resuspended in water at 1.5% (w/v) and kept in 1 mL aliquots at −70°C until analyzed and used.
# Spironucleus vortens = tested on: Spironucleus vortens; design: method as in Millet et al., 2011; conditions: ref Millet et al., 2011; cited from earlier work
# [5] = tested on: cysteine protease activities in trophozoite lysates; assay: Proteolytic activity assay (gelatin zymogram); assay type: biochemical, Giardia duodenalis; conditions: 3.5 mM; bands 110, 60, 75 and 25 kDa
# Procedure: Trophozoite lysates were prepared as mentioned above except that cell lysis was carried out by sonication in 1.5 mL microcentrifuge tubes under ice bath using eight 15-s pulses at 80% amplitude with resting periods of 30 s (Ultrasonic Processor mod. CV19). Protein concentration was adjusted to 2 mg/mL and aliquoted in 25 μL fractions that were incubated for 30 min room temperature with 2–5 μL stock solutions of representative TACs (ALC, DADS, and AM). The reaction mixtures were diluted in Laemmli's sample buffer, loaded in wells of 10% acrylamide-02% gelatin slab gels and these were electrophoretically analyzed using 80 V/4°C. After this, gels were incubated in a solution of triton X-100 2.5% (v/v) in water for 1 h and washed 3 times with distilled water. Bands with proteolytic activity were detected as follows: gels were incubated in acetate buffer pH 5.5 with 1 mM DTT for 16 h at 37°C under constant stirring, washed 3 times with distilled water and stained with Coomassie blue (BioRad) for 2 h at 37°C under constant stirring. Finally, gels were washed with distilled water and incubated with a solution of 5% acetic acid/40% methanol (v/v). Gel images were documented with a UVP High Performance Ultraviolet Transilluminator and software Launch DocItLS.
# [6] = tested on: G. duodenalis trophozoites; assay: In vitro susceptibility, subculture in liquid medium (SCLM); assay type: cell-based, Giardia duodenalis (WB strain); conditions: SCLM; for IC50: Giardia duodenalis
# [7] = tested on: G. duodenalis trophozoites; assay: Annexin V-PI flow cytometry (apoptosis/necrosis); assay type: cell-based, Giardia duodenalis; conditions: 0.6 mM (MLC), 24 h
# Procedure: as §1
# [8] = Tolerability and lethality in gerbils
# Procedure: Eighty male Mongolian gerbils (M. unguiculatus) 6–10 weeks old, weighted 45–60 g and sentinel-checked gerbils free of intestinal parasites were kept in individual cages and distributed in 12 groups of 6 animals per treatment and experimental infections were performed as described elsewhere (Argüello-García and Ortega-Pierres, [1997]). In brief, animals were inoculated intragastrically with 1 × 10^6 G. duodenalis trophozoites in 500 μl sterile PBS per os using gavage under ether anesthesia. Control animals received 500 μl sterile PBS each. […] As additional control, one group of animals received MTZ (38.4 mg/kg at single or double dose). […] Treatment efficacy was evaluated by determining the presence or absence of trophozoites in intestinal contents of control and treated gerbils at day 13 post-infection. […] Supernatant was collected and centrifuged at 750 × g for 10 min at 4°C, cell pellet was resuspended in 1 mL PBS and trophozoites were counted using a haemocytometer. Gerbils were scored as cured if no trophozoites were recovered from infected animals.
# [9] = tested on: G. duodenalis trophozoites; assay: In vitro susceptibility, FDA-PI staining; assay type: cell-based, Giardia duodenalis (WB strain); conditions: 24 h exposure
# Entamoeba histolytica = tested on: Entamoeba histolytica; design: method as in Ankri et al., 1997; conditions: ref Ankri et al., 1997; cited from earlier work
# [10] = tested on: G. duodenalis trophozoites; assay: Efficacy in experimental giardiasis; conditions: for cure rate (gerbils without trophozoites): read day 13
# Procedure: Eighty male Mongolian gerbils (M. unguiculatus) 6–10 weeks old, weighted 45–60 g and sentinel-checked gerbils free of intestinal parasites were kept in individual cages and distributed in 12 groups of 6 animals per treatment and experimental infections were performed as described elsewhere (Argüello-García and Ortega-Pierres, [1997]). In brief, animals were inoculated intragastrically with 1 × 10^6 G. duodenalis trophozoites in 500 μl sterile PBS per os using gavage under ether anesthesia. Control animals received 500 μl sterile PBS each. […] As additional control, one group of animals received MTZ (38.4 mg/kg at single or double dose). […] Treatment efficacy was evaluated by determining the presence or absence of trophozoites in intestinal contents of control and treated gerbils at day 13 post-infection. For this, gerbils were euthanized by an intraperitoneal injection of pentobarbital at a dose of 150 mg/kg to minimize stress and to reduce suffering, then a 10 cm-long section of intestine (from stomach ending, equivalent to nearly the entire small intestine) was excised after laparotomy, and it was longitudinally opened and rinsed in 20 mL PBS at 4°C for 20 min under shaking (720 rpm, Heidolph^TM rotatory shaker) to determine trophozoites number after parasite detachment from microvilli. Supernatant was collected and centrifuged at 750 × g for 10 min at 4°C, cell pellet was resuspended in 1 mL PBS and trophozoites were counted using a haemocytometer. Gerbils were scored as cured if no trophozoites were recovered from infected animals.
structure (smiles),measurement,setting,value
"C=CCS[S+]([O-])CC=C (stereo not shown) [ALC, diallyl thiosulfinate]",oral lethality,[1],300 mg/kg
same,MLC (mM) ±SD,[2],1.08 mM
same,MLC (mM) ±SD,[2]; listed as Allicin,1.088 ± 0.24 mM
same,IC50,[2]; Giardia duodenalis,369 ± 21 µM
same,cells at G1 phase,[3]; 0.6 mM,7.4% and 7.43%
same,cells at G2/M phase,[3]; 0.6 mM,4.4% and 4.44%
same,cells at G2 phase,[3]; 0.6 mM,61.0% and 61.09%
same,cells at S phase,[3]; 0.6 mM,27.03%
same,cells at G1 phase,[3]; 1.2 mM,2.2% and 2.22%
same,cells at G2/M phase,[3]; 1.2 mM,5.7% and 5.72%
same,cells at G2 phase,[3]; 1.2 mM,75.53%
same,cells at S phase,[3]; 1.2 mM,5.7% and 5.72%
same,time of retained full activity on storage,[4],up to 6 months
same,IC50,Spironucleus vortens,> 1120 µM
same,effect on proteolytic bands in zymogram,[5],strongly inhibited
same,IC50,"[6]; 24 h exposure (Figure 6B), read-out: IC50 ± SD",0.322 ± 0.023 mM
same,IC50,"[6]; 24 h exposure, read-out: IC50 (mM) ±SD",0.32 ± 0.02 mM
same,MLC (mM) ±SD,[6]; 24 h exposure,0.6 mM
same,concentration at which parasite replication was suppressed,[6]; 24 h exposure,600 µM
same,MLC (mM) ±SD,"[6]; 24 h exposure, listed as Allicin",0.600 ± 0.016 mM
same,R4 cells positive for early apoptosis (annexin V+),[7],10.2%
same,irritation in intestinal epithelium,"[8]; 276 mg/kg single dose, treated non-infected animals, surgical examination",noticeable irritation in intestinal epithelium
same,lethal dose,"[8]; intragastric route, gerbils",> 400 mg/kg
same,MLC (mM) ±SD,[9],1.285 ± 0.18 mM
same,IC50,[9]; Giardia duodenalis,536 ± 103 µM
same,IC60,Entamoeba histolytica,500 µM
same,cure rate (gerbils without trophozoites),[10]; 35 mg/kg single dose intragastric day 10 p.i.,3 out of 6
same,cure rate (gerbils without trophozoites),[10]; 70 mg/kg single dose intragastric day 10 p.i.,5 out of 6 and 5/6
same,cure rate (gerbils without trophozoites),[10]; 138 mg/kg single dose intragastric day 10 p.i.,6 out of 6 and 6/6
same,cure rate (gerbils without trophozoites),[10]; 276 mg/kg single dose intragastric day 10 p.i.,5 out of 6
same,intestinal parasite numbers,"[10]; increasing single doses 35-276 mg/kg, day 13 p.i.",progressive decrease in parasite numbers
